One test has as its system β-cells. Kind of test: Screening for CICR-active agents by periodic amplification of Ca2+ signals in single β-cells (fura-2 microfluorometry). In kind it is cell-based, mouse.
Test [1] has as its system INS-1E cells. Kind of test: Insulin release from INS-1E cells (insulin ELISA). The test is classed as cell-based, rat. The protocol: Glucose-responsive clonal insulinoma cells (INS-1E) were cultured in RPMI-1640 medium supplemented with FBS (5%, v/v), penicillin (50 i.u. /ml), streptomycin (50 μg/ml), 2-mercaptoethanol (50 μM), HEPES (10 mM) and sodium pyruvate (1 mM) (Maechler, P. et al., IUBMB.Life 50, 27-31(2000). Medium was changed every other day.
INS-1E cells (200,000/ well) were seeded in 24-well plates and cultured for 6-7 days before using them for insulin release assay. On the day of experiment, cells were incubated in RPMI without glucose for 2 hours. Cells attached to the wells were then washed three times with warm (37° C.) medium (KRBH) containing (in mM): NaCl 140, NaHCO3 2, KCl 3.6, NaH2PO4 0.5, MgSO4 0.5, HEPES 10, CaCl2, 1.5, BSA 0.1% and incubated for 30 minutes at 37°. Cells were then incubated with 500 μl of the test solutions, by adding solution to one well at a time, every 20 sec. After one hour of incubation, 200 μl of supernatant was transferred to Eppendorf tubes, again one well at a time, every 20 sec. The collected materials were then centrifuged and supernatants were used for insulin ELISA.

For the next test, the system named is mouse islets. Kind of test: Insulin release from perifused islets (radio immunoassay). The test is classed as cell-based. To be noted: 11.2 mM glucose. The protocol: Normal lean mice (BALB/c, Bomholtgard, Ry, Denmark) weighing 20-25 g were starved overnight and islets isolated by collagenase digestion and dextran purification method (Shi, C. L., Cell Transplant. 6, 33-37 (1997)). Islets were then cultured overnight in RPMI 1640 medium containing 10% FBS, 11.2 mM glucose, 60 i.u./ml penicillin and 60 μg/ml gentamicin, in a water-saturated atmosphere of air and 5% CO2.
Groups of 50 islets were transferred to a perifusion chamber housed in an infant incubator at 37° C. They were perifused at a rate of 1 ml/ min with Krebs-Ringer bicarbonate buffer supplemented with 20 mM HEPES, 0.1% BSA, glucose and drugs as required. The buffer was continuously gassed with 95% 02 and 5% CO2. The islets were perifused for 30 min with this medium containing 2 mM glucose, followed by a 40-min stimulation with 11.2 mM glucose alone (control), or 11.2 mM glucose plus drugs. During the last five minutes of perifusion with 2 mM glucose, three samples of effluent were collected to measure basal rate of insulin secretion. After switching to the 11.2 mM glucose the effluent was sampled every minute for the first five minutes and then at the intervals of 5 minutes. The average rate of insulin secretion (ng/min/50 islets) was calculated by integrating individual perifusion profile. Insulin was measured by radio immunoassay using crystalline mouse insulin as standard (Shi, C. L. cited above).

The test system of test [2] is INS-1E cells. In words: Measurement of cAMP content. To be noted: caffeine 0.25-3 mM. In kind it is cell-based, rat. As to the method: INS-1E cells (20000 per well) were cultured for three days in 24 well plates. On the day of the experiments cells were washed and incubated for 30 min at 37° C. in the KRBH buffer containing 3 mM glucose. Cells were then washed again and solutions containing 11.2 mM glucose and test substances were added. After 10 min, incubations were terminated by removing the medium and precipitating cell protein in 80% ice-cold ethanol. Cells were then scraped and all contents of the wells were transferred to tubes. After centrifugation at 14,000 rpm for five min, the supernatants were collected and freeze-dried over-night. The cAMP content in each sample was determined with a radio ligand-binding assay using a bovine heart cAMP-binding protein as described by Pyne, N. J. and Tolan, D., Pyne, S. in Biochem.J 328 (Pt 2), 689-694 (1997).

The subject of test [3] is INS-1E cells. Kind of test: Confocal microscopy imaging of [Ca2+]i in fluo-3 loaded cells. The test is classed as cell-based, rat. The conditions noted are these: caffeine 5 mM, FIG. 10 upper panel. The protocol:
INS-1E cells were incubated in medium containing 5 mM glucose and 5 μM fluo-3 AM for 30 minutes followed by 10 min in medium without fluo-3Cover slips were mounted in a superfusion chamber, which was superfused with physiological solution at 3 ml/min. A three-way solenoid valve system allowed for rapid exchange of solutions. The dead space of the system (from valve inlet to chamber) was -0.5 ml. The flow was increased to 6 ml/min 15 s prior to switching from control solution to experimental solutions and reduced back to 3 ml/min after return to normal solution. [Ca^2+]1 were recorded with a BioRad laser scanning confocal system (BioRad MRC 1024) attached to a Nikon Diaphot 200 inverted microscope equipped with Nikon Plan Apo 60×1.4 NA oil immersion objective. Fluo-3 was excited at 488 nm (15 mW krypton-argon mixed gas laser, intensity attenuated to 3%) and the emitted light was collected through a 522 nm narrow band filter. Images were obtained with the iris closed to the minimum size that was compatible with good image quality. For each image, 3× Kalman averaging was used. Images were stored and converted to pseudo-color images using Scion Image software (Scion Corporation, Maryland).
Ratios were calculated using the initial fluorescence F0, and the observed fluorescence F using the equation R=F/F0, and these ratios were subsequently converted into [Ca^2+]i using the equation: [Ca^2+]i=RxKD/((KD/resting [Ca^2+]i)−R). […] Resting [Ca^2+]i in these cells under the conditions of experiment was 35 nM. All experiments were carried out at room temperature (25° C.).

As to `Cn1c(=O)c2c(ncn2C)n(C)c1=O` [caffeine], the “periodic amplified Ca2+ release in β-cells (summary of screening)” value in the test on β-cells is “elicit periodic amplified Ca^2+ release”. The “periodic amplification of Ca2+ signals (CICR)” value with β-cells (Example 6, FIG. 3: 10 mM glucose) is “gave rise to periodic amplifications of Ca^2+ signals”. The “concentration giving maximal stimulation of secretion” value in the test on INS-1E cells [1] (FIG. 9B) was 0.25 to 0.75 mM. Further, the insulin secretion entry with INS-1E cells [1] (caffeine 0.25 mM, FIG. 9B) is “near-maximal stimulation of insulin secretion”; in the test with INS-1E cells [1] (caffeine 0.75 mM, KATP channel bypassed by diazoxide and KCl, FIG. 8B) it was “Stimulation of insulin secretion by caffeine (0.75 mM) was observed”; with INS-1E cells [1] (caffeine 2.5 mM, 3 mM glucose, 1 hr, FIG. 8A), “did not alter insulin secretion”; in the test on INS-1E cells [1] (methylxanthine 2.5 mM, 11.2 mM glucose, 1 hr, FIG. 8A/8C), “stimulated secretion”. Also, the insulin secretion rate in the test with INS-1E cells [1] (caffeine 0.75 mM, without ryanodine) stood at 328±22 ng/10^6 cell/hr; in the test with mouse islets (40-min stimulation) it was 5.06±1.17 ng/min/50 islets. Moreover, in the test with mouse islets (2.5 mM caffeine, 6 μM MBED, FIG. 6), the “stimulation of insulin secretion from islets” value was “persistently stimulated both the first- and second-phases of insulin secretion”. For the same molecule, the “effect on cAMP content” value in the test with INS-1E cells [2] is on record as “did not increase cAMP content”. Besides, in the test on INS-1E cells [3], the “change in [Ca2+]i” value was “transient increase on [Ca^2+]i”.

The record behind these values is patent US20030148259A1, “Method of identifying insulin secretion stimulating compounds, and the use of such compounds in treating insulin-secretion related disorders” (priority 2002, published 2003).
